# Patent publication US9063143B2, “Cancer platinum resistance detection and sensitization method” (University of South Florida, priority 2008, dated 2015)
# What was measured:
# Experiment in all cases: MTT cell proliferation assay, cisplatin resistance
# Format in all cases: cell-based
# Conditions in all cases: MTT proliferation rate at 2 μg/mL
# [1] = test system: IGROV1 ovarian cancer cell line
# Description: (§1) Ovarian cancer cell lines (C13, OV2008, A2780S, A2780CP, IGROV1, T8, A2008, IOSER, and OVCAR5) were grown in RPMI-1640 supplemented with 10% fetal bovine serum, 1% sodium pyruvate, and 1% nonessential amino acids. IOSER cells were grown in 1:1 MCBD105 and Medium 199, HEPES, Bovine Pituitary Extract, Insulin, hEGF, hydrocortisone and 15% FBS. All tissue culture reagents were obtained from Sigma Aldrich (St Louis, Mo.). Cells were maintained in a CO2 incubator at 37° C. and subcultured at 70% confluence. The cell lines consist of two from the NCI60 panel: IGR-OV1 (doubling time 31) and OVCAR-5 (doubling time 48.8). Several cell lines have mother/daughter relationships including A2008 and daughter C13; as well as A2780S/A2780CP.
# (§2) To induce the development of platinum-resistance, the nine ovarian cancer cell lines were subjected to serial treatments with increasing dose cisplatin (Group A: 1 and 3 μg/mL, Group B: 2 and 4 μg/mL, and Group C: 3 and 5 μg/mL) using a protocol previously described by Hong et al (Antisense Bcl2 oligonucleotide in cisplatin-resistant bladder cancer cell lines. BJU Int. 2002 July; 90(1):113-7). For each of the 9 cell lines, three different dosage schedules were used: Schedule A—3 treatment/recovery cycles at 1 μg/mL, followed by 3 treatment/recovery cycles at 3 μg/mL; Schedule B—3 treatment/recovery cycles at 2 μg/mL, followed by 3 treatment/recovery cycles at 4 μg/mL; Schedule C—3 treatment/recovery cycles at 3 μg/mL, followed by 3 treatment/recovery cycles at 5 μg/mL. After each treatment, cells were allowed to recover before re-treatment. Gene expression analysis was performed prior to treatment, after 3 and 6 treatments. The experiment design and notations used for each treatment schedule are outlined in Table 1.
# (§3) Thus, for each of the 9 cell lines, 3 different starting doses of cisplatin were used with three different recovery cycles, such that a total of 162 treatment/recovery cycles were induced. Increasing platinum-resistance was confirmed by MTT cell proliferation assays prior to cisplatin treatment, and after 3 and 6 treatment/recovery cycles (for each treatment schedule).
# (§4) MTT solution was produced by dissolving 3-(4,5-Dimethylthiazol-2-yl)-2,5-diphenyltetrazolium bromide (MTT; Sigma, St. Louis, Mo., USA) in phosphate-buffered saline (PBS; 5 mg/mL). Cells (1×10^3) were incubated with 100 μL of culture medium for 48 h in 96-well plates, and 100 μL of MTT solution with RPMI media in a 1:10 concentration was added to each well. After 4 h of incubation, medium was decanted. 100 μL of acidified isopropanol was added to each well. […] MTT assays were performed independently in triplicate per each experimental time point and means reported. For each cell line at each time-point for each schedule, an IC50 was calculated using MTT assay, as well as a percent cell survival at a fixed cisplatin concentration (based upon the mid-point of the log-phase of the dose-response curve for each cell line at baseline), seen in Table 2.
# (§5) Prior to treatment (baseline), and at each dose level following treatment (3 and 6 treatment/recovery cycles) and cell recovery, RNA was extracted and genome-wide expression analysis performed using U133 plus 2.0 Affymetrix chips and cisplatin-resistance was quantified using MTT assay. In parallel, at each of these time-points, RNA was extracted and genome-wide expression analysis performed using U133 plus 2.0 Affymetrix chips. Array analysis was performed on 72 samples. Following recovery from each dose level, cells were evaluated for platinum-resistance using MTT proliferation assay, seen in Table 3. Cell line recovery was defined as the time taken for the cells to repopulate in a normal fashion (to reach 70% confluence in 48 hours). Cell line proliferation rate at 2 μg/mL was used as a measure of resistance.
# [2] = test system: OVCAR5 ovarian cancer cell line
# Description: as §1, §2, §3, §4, §5
# [3] = test system: OV2008 ovarian cancer cell line
# Description: as §1, §2, §3, §4, §5
# [4] = test system: C13 ovarian cancer cell line
# Description: as §1, §2, §3, §4, §5
# [5] = test system: T8 ovarian cancer cell line
# Description: as §1, §2, §3, §4, §5
# [6] = test system: A2780CP ovarian cancer cell line
# Description: as §1, §2, §3, §4, §5
# [7] = test system: A2780S ovarian cancer cell line
# Description: as §1, §2, §3, §4, §5
# [8] = test system: A2008 ovarian cancer cell line
# Description: as §1, §2, §3, §4, §5
# IOSER cells = test system: IOSER cells
# Description: as §1, §2, §3, §4, §5
structure (smiles),measurement,setting,value
N.N.[Cl][Pt][Cl] [cisplatin],Cell population measurements,[1]; IGROV1 after cisplatin regimen 1.33,69
same,Cell population measurements,[1]; IGROV1 after cisplatin regimen 2.33,48
same,Cell population measurements,[1]; IGROV1 after cisplatin regimen 3.33,55
same,Cell population measurements,[1]; IGROV1 after cisplatin regimen 3.36,68.3
same,Cell population measurements,[1]; IGROV1 after cisplatin regimen 4.36,69
same,Cell population measurements,[1]; IGROV1 after cisplatin regimen 5.36,58
same,Cell population measurements,[2]; OVCAR5 after cisplatin regimen 1.33,49
same,Cell population measurements,[2]; OVCAR5 after cisplatin regimen 2.33,41
same,Cell population measurements,[2]; OVCAR5 after cisplatin regimen 3.33,47
same,Cell population measurements,[2]; OVCAR5 after cisplatin regimen 3.36,66.5
same,Cell population measurements,[2]; OVCAR5 after cisplatin regimen 4.36,69
same,Cell population measurements,[2]; OVCAR5 after cisplatin regimen 5.36,63
same,Cell population measurements,[3]; OV2008 after cisplatin regimen 1.33,62
same,Cell population measurements,[3]; OV2008 after cisplatin regimen 2.33,54
same,Cell population measurements,[3]; OV2008 after cisplatin regimen 3.33,67
same,Cell population measurements,[3]; OV2008 after cisplatin regimen 3.36,64.8
same,Cell population measurements,[3]; OV2008 after cisplatin regimen 4.36,98
same,Cell population measurements,[3]; OV2008 after cisplatin regimen 5.36,86
same,Cell population measurements,[4]; C13 after cisplatin regimen 1.33,83
same,Cell population measurements,[4]; C13 after cisplatin regimen 2.33,73
same,Cell population measurements,[4]; C13 after cisplatin regimen 3.33,71
same,Cell population measurements,[4]; C13 after cisplatin regimen 3.36,53
same,Cell population measurements,[4]; C13 after cisplatin regimen 4.36,91
same,Cell population measurements,[4]; C13 after cisplatin regimen 5.36,67
same,Cell population measurements,[5]; T8 after cisplatin regimen 1.33,42
same,Cell population measurements,[5]; T8 after cisplatin regimen 2.33,64
same,Cell population measurements,[5]; T8 after cisplatin regimen 3.33,67
same,Cell population measurements,[5]; T8 after cisplatin regimen 3.36,68.4
same,Cell population measurements,[5]; T8 after cisplatin regimen 4.36,69
same,Cell population measurements,[5]; T8 after cisplatin regimen 5.36,62
same,Cell population measurements,[6]; A2780CP after cisplatin regimen 1.33,84
same,Cell population measurements,[6]; A2780CP after cisplatin regimen 2.33,100
same,Cell population measurements,[6]; A2780CP after cisplatin regimen 3.33,91
same,Cell population measurements,[6]; A2780CP after cisplatin regimen 3.36,100
same,Cell population measurements,[6]; A2780CP after cisplatin regimen 4.36,83
same,Cell population measurements,[6]; A2780CP after cisplatin regimen 5.36,98
same,Cell population measurements,[7]; A2780S after cisplatin regimen 1.33,26
same,Cell population measurements,[7]; A2780S after cisplatin regimen 2.33,39
same,Cell population measurements,[7]; A2780S after cisplatin regimen 3.33,64
same,Cell population measurements,[7]; A2780S after cisplatin regimen 3.36,30.5
same,Cell population measurements,[7]; A2780S after cisplatin regimen 4.36,87
same,Cell population measurements,[7]; A2780S after cisplatin regimen 5.36,72
same,Cell population measurements,[8]; A2008 after cisplatin regimen 1.33,19
same,Cell population measurements,[8]; A2008 after cisplatin regimen 2.33,33
same,Cell population measurements,[8]; A2008 after cisplatin regimen 3.33,25
same,Cell population measurements,[8]; A2008 after cisplatin regimen 3.36,25.6
same,Cell population measurements,[8]; A2008 after cisplatin regimen 4.36,29
same,Cell population measurements,[8]; A2008 after cisplatin regimen 5.36,37
same,Cell population measurements,IOSER cells; IOSER after cisplatin regimen 1.33,62
same,Cell population measurements,IOSER cells; IOSER after cisplatin regimen 2.33,70
same,Cell population measurements,IOSER cells; IOSER after cisplatin regimen 3.33,79
same,Cell population measurements,IOSER cells; IOSER after cisplatin regimen 3.36,89
same,Cell population measurements,IOSER cells; IOSER after cisplatin regimen 4.36,71
same,Cell population measurements,IOSER cells; IOSER after cisplatin regimen 5.36,84
